Holding throughout (format): biochemical
Experiment [1] addresses T1, human 20S proteasome (Homo sapiens, UniProt P28074).
T1 construct: human erythrocyte 20S proteasomes (AK-740, Biomol); purchased Biomol AK-740; host or cells: human erythrocytes
Briefly: Proteasome inhibition assay, chymotryptic activity (substrate Suc-LLVY-AMC). The text has this:
(§1) The Ki' value is defined as the apparent dissociation constant of the inhibitor. The Ki' value can be calculated from the IC50 value using the equation: Ki' = IC50 * Km / (S+Km), wherein S is the concentration of the substrate, and Km is the substrate concentration (in the absence of an inhibitor) at which the velocity of the reaction is half-maximal. The Ki' of an inhibitor for inhibition of a particular substrate (fixed Km) is constant.
As used herein, the term "chymotryptic activity" refers to inhibition of the human 20S proteasome measured by the reduced proteolytic cleavage of the "chymotryptic" proteasome substrate Suc-LLVY-AMC.
(§2) Proteasome inhibition assays were performed with human erythrocyte 20S proteasomes (AK-740, Biomol) at 37 °C in 100 µL reaction volumes containing 2 µg ml^-1 20 proteasome and 100 µM Suc-LLVY-AMC as a substrate. Cleavage efficience in presence of varying inhibitor concentrations were followed by an MWGt Sirius HT plate reader (BIO-TEK instruments) equipped with 360 nm excitation and 460 nm emission filters. The obtained fluorescence values (RFU) were plotted versus time (t). The fluorescence data were fitted by the least squares method using SigmaPlot 10.0 software (Systat Software) to the equation f = f0 + Vst + [(vi - vs)/kobs][1-exp(-kobs*t)], where vi and vs are initial and final velocities, respectively, and kobs is the pseudo-first order associaten rate constant. Ki' values were then determined by plotting vi against inhibitor concentration [I]. Using SigmaPlot, the data were fitted with the hyperbolic equation vi = c + [v0/(Ki' + [I])] where v0 is the velocity of the control.

The target of experiment [2] is T2, human 20S proteasome (Homo sapiens, UniProt P28072).
T2 construct: human erythrocyte 20S proteasomes (AK-740, Biomol); purchased Biomol AK-740; host or cells: human erythrocytes
Briefly: Proteasome inhibition assay, caspase-like activity (substrate Z-LLE-AMC).
Excerpt: as §1
As used herein, the term "caspase-like activity" refers to inhibition of the human 20S proteasome measured by the reduced proteolytic cleavage of the "caspase-lie" proteasome substrate Z-LLE-AMC.
as §2
The inhibition of the caspase-like proteasome activity was performed in analogy to example 7 with using Z-LLE-AMC as a substrate instead of Suc-LLVY-AMC.

Experiment [3] has as its target T3, human 20S proteasome (Homo sapiens, UniProt Q99436).
T3 construct: human erythrocyte 20S proteasomes (AK-740, Biomol); purchased Biomol AK-740; host or cells: human erythrocytes
Kind of experiment: Proteasome inhibition assay, tryptic activity (substrate Boc-LRR-AMC).
Excerpt: as §1
As used herein, the term "tryptic activity" refers to inhibition of the human 20S proteasome measured by the reduced proteolytic cleavage of the "tryptic" proteasome substrate Boc-LRR-AMC.
as §2
The inhibition of the tryptic proteasome activity was performed in analogy to example 7 with using Boc-LRR-AMC as a substrate instead of Suc-LLVY-AMC.

Broadly, the pKi is −log10 of the Ki, conventionally taken in molar units.

pKi: −log10 of the molar value. Where two headings read alike, the source gives them in different places.

For `COCCOCCOCCNC(=O)N[C@H](C(=O)N[C@H]1/C=C/CCNC(=O)/C=C/[C@H](C(C)C)NC1=O)C(C)C` [Compound 5, SylA-PEG2], the pKi at human 20S proteasome [1] was > 7.70; at human 20S proteasome [2] it was < 7.00; at human 20S proteasome [3] it was 7.00 to 7.70.

On to `COCCOCCNC(=O)[C@@H](NC(=O)N[C@H](C(=O)N[C@H]1/C=C/CCNC(=O)/C=C/[C@H](C(C)C)NC1=O)C(C)C)C(C)C` [Compound 3, SylA-PEG1], for which the pKi at human 20S proteasome [1] is > 7.70; at human 20S proteasome [2], < 7.00; at human 20S proteasome [3] it was 7.00 to 7.70.

Turning to `CCCCCCCCCCNC(=O)N[C@H](C(=O)N[C@H]1/C=C/CCNC(=O)/C=C/[C@H](C(C)C)NC1=O)C(C)C` [Compound 4, SylA-decanyl], the negative logarithm of the Ki (pKi) on human 20S proteasome [1] is > 7.70; at human 20S proteasome [2], < 7.00; at human 20S proteasome [3], 7.00 to 7.70.

For `CC(C)[C@H](NC(=O)N[C@H](C(=O)N[C@H]1/C=C/CCNC(=O)/C=C/[C@H](C(C)C)NC1=O)C(C)C)C(=O)NCCCCCNC(=O)c1ccc(-c2c3ccc(=[N+](C)C)cc-3oc3cc(N(C)C)ccc23)c(C(=O)[O-])c1` [Compound 2, SylA-Rhodamine], the Ki on human 20S proteasome [1] (read-out: chymotryptic activity [Ki' value in nM], human erythrocyte 20S proteasomes, substrate Suc-LLVY-AMC 100 µM, 37 °C, Ki' = apparent dissociation constant) was > 100 nM; at human 20S proteasome [2] (read-out: caspase-like activity [Ki' value in nM], human erythrocyte 20S proteasomes, substrate Z-LLE-AMC, 37 °C, Ki' = apparent dissociation constant) it was > 50000 nM; on human 20S proteasome [3] (read-out: tryptic activity [Ki' value in nM], human erythrocyte 20S proteasomes, substrate Boc-LRR-AMC, 37 °C, Ki' = apparent dissociation constant), > 100 nM.

In the case of `COC(=O)[C@@H](NC(=O)N[C@H](C(=O)N[C@H]1/C=C/CCNC(=O)/C=C/[C@H](C(C)C)NC1=O)C(C)C)C(C)C` [Compound 1, SylA-OCH3], the negative-log Ki (pKi) was < 7.00 on human 20S proteasome [1], < 4.30 on human 20S proteasome [2] and < 7.00 on human 20S proteasome [3].
